Source: PMC11966747, “Next Generation Risk Assessment of Acute Neurotoxicity from Organophosphate Exposures Using the In Vitro–In Silico Derived Dietary Comparator Ratio” (Environmental Science & Technology, 2025)
Read-outs that look alike come from different tables or passages of the source.

How the values were obtained:
[1] = biological target: T1, erythrocyte AChE (Homo sapiens, UniProt P22303); conditions: human, ref Table S2, cited from earlier work
[2] = QSAR-based prediction; ref Punt et al. 2022; Moerenhout et al. 2024; cited from earlier work
[3] = biological target: T1, erythrocyte AChE; experiment: Exposure Activity Ratio (EAR) and Dietary Comparator Ratio (DCR) calculation; design: from tissue; host or cells: human whole peripheral blood (erythrocytes), K2EDTA anticoagulant; conditions: human
Experimental: The DCR value for an exposure scenario was calculated as the ratio of EARtest and EARcomparator (eq 1). The EARtest is scenario-specific and was defined with the IC50 of the tested organophosphate oxon for in vitro erythrocyte AChE inhibition and the PBK model-simulated CBmaxoxon at the defined exposure level (eq 2).
The DCR-based predictions were evaluated by comparing the obtained DCR results with actual knowledge of the adverse health effects reported for the respective exposure scenarios. Adverse effects cannot be ruled out for human exposure scenarios with a DCR result greater than 1, while exposure scenarios with a DCR result less than or equal to 1 are considered to raise no safety concern.[18]−[20] Once validated as an adequate predicting tool, the DCR approach was applied for evaluating the safety of exposure scenarios, for which no information on the resulting toxic outcomes was reported at the defined dose levels for humans.

T1 sequence (P22303 32-617 isoform P22303-2 limits assumed): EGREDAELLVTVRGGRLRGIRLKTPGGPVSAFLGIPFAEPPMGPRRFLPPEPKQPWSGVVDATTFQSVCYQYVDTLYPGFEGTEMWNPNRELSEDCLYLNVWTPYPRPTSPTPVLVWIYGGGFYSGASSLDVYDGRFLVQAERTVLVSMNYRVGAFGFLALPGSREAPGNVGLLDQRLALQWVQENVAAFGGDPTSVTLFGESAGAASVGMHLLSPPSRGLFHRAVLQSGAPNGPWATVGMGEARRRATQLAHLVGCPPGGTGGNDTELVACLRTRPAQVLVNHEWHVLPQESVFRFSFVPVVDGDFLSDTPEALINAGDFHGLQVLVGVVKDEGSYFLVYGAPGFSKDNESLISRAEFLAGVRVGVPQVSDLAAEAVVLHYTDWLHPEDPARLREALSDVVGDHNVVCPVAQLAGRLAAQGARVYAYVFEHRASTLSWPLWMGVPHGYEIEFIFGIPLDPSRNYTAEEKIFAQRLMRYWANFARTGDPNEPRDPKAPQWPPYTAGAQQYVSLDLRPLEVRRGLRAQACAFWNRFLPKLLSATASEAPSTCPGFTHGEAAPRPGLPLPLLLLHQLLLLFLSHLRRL

Compound: COP(=S)(OC)Oc1ccc([N+](=O)[O-])c(C)c1 [fenitrothion]
- reported or expected adverse health outcome ([1]; single oral 143 mg/kg BW, listed as Fenitrothion, 143 mg/kg): Yes
- reported or expected adverse health outcome ([1]; single oral 214 mg/kg BW, 214 mg/kg): positive
- reported or expected adverse health outcome ([1]; single oral 214 mg/kg BW, listed as Fenitrothion, 214 mg/kg): Yes
- reported or expected adverse health outcome ([1]; single oral 357 mg/kg BW, 357 mg/kg): positive
- reported or expected adverse health outcome ([1]; single oral 357 mg/kg BW, listed as Fenitrothion, 357 mg/kg): Yes
- reported or expected adverse health outcome ([1]; single oral 429 mg/kg BW, 429 mg/kg): positive
- reported or expected adverse health outcome ([1]; single oral 429 mg/kg BW, listed as Fenitrothion, 429 mg/kg): Yes
- reported or expected adverse health outcome ([1]; single oral 500 mg/kg BW, 500 mg/kg): positive
- reported or expected adverse health outcome ([1]; single oral 500 mg/kg BW, listed as Fenitrothion, 500 mg/kg): Yes
- reported or expected adverse health outcome ([1]; single oral 536 mg/kg BW, 536 mg/kg): positive
- reported or expected adverse health outcome ([1]; single oral 536 mg/kg BW, listed as Fenitrothion, 536 mg/kg): Yes
- reported or expected adverse health outcome ([1]; single oral 571 mg/kg BW, 571 mg/kg): positive
- reported or expected adverse health outcome ([1]; single oral 571 mg/kg BW, listed as Fenitrothion, 571 mg/kg): Yes
- reported or expected adverse health outcome ([1]; single oral 1714 mg/kg BW, 1714 mg/kg): positive
- reported or expected adverse health outcome ([1]; single oral 1714 mg/kg BW, listed as Fenitrothion, 1714 mg/kg): Yes
- reported or expected adverse health outcome ([1]; single oral 1786 mg/kg BW, 1786 mg/kg): positive
- reported or expected adverse health outcome ([1]; single oral 1786 mg/kg BW, listed as Fenitrothion, 1786 mg/kg): Yes
- Oral absorption rate constant [2]: 0.58 h⁻¹
- calculated DCR value ([3]; single oral 0.042 mg/kg BW): 0.17
- calculated EARtest value ([3]; single oral 0.042 mg/kg BW): 6.8 × 10^–3
- calculated DCR value ([3]; single oral 0.06 mg/kg BW): 0.25
- calculated EARtest value ([3]; single oral 0.06 mg/kg BW): 9.7 × 10^–3
- calculated DCR value ([3]; single oral 0.083 mg/kg BW): 0.34
- calculated EARtest value ([3]; single oral 0.083 mg/kg BW): 0.013
- calculated DCR value ([3]; single oral 0.09 mg/kg BW): 0.37
- calculated EARtest value ([3]; single oral 0.09 mg/kg BW): 0.015
- calculated DCR value ([3]; single oral 0.17 mg/kg BW): 0.70
- calculated EARtest value ([3]; single oral 0.17 mg/kg BW): 0.028
- calculated DCR value ([3]; single oral 0.18 mg/kg BW): 0.74
- calculated EARtest value ([3]; single oral 0.18 mg/kg BW): 0.029
- calculated DCR value ([3]; single oral 0.25 mg/kg BW): 1.0
- calculated EARtest value ([3]; single oral 0.25 mg/kg BW): 0.041
- calculated DCR value ([3]; single oral 0.33 mg/kg BW): 1.4
- calculated EARtest value ([3]; single oral 0.33 mg/kg BW): 0.054
- calculated DCR value ([3]; single oral 0.36 mg/kg BW): 1.5
- calculated EARtest value ([3]; single oral 0.36 mg/kg BW): 0.059
- calculated DCR value ([3]; single oral 36 mg/kg BW): 174
- calculated EARtest value ([3]; single oral 36 mg/kg BW): 6.89
- calculated DCR value ([3]; single oral 71 mg/kg BW): 346
- calculated EARtest value ([3]; single oral 71 mg/kg BW): 13.66
- calculated DCR value ([3]; single oral 143 mg/kg BW): 610
- calculated EARtest value ([3]; single oral 143 mg/kg BW): 24.10
- calculated DCR value ([3]; single oral 214 mg/kg BW): 811
- calculated EARtest value ([3]; single oral 214 mg/kg BW): 32.03
- calculated DCR value ([3]; single oral 357 mg/kg BW): 1189
- calculated EARtest value ([3]; single oral 357 mg/kg BW): 46.93
- calculated DCR value ([3]; single oral 429 mg/kg BW): 1364
- calculated EARtest value ([3]; single oral 429 mg/kg BW): 53.86
- calculated DCR value ([3]; single oral 500 mg/kg BW): 1526
- calculated EARtest value ([3]; single oral 500 mg/kg BW): 60.24
- calculated DCR value ([3]; single oral 536 mg/kg BW): 1604
- calculated EARtest value ([3]; single oral 536 mg/kg BW): 63.31
- calculated DCR value ([3]; single oral 571 mg/kg BW): 1677
- calculated EARtest value ([3]; single oral 571 mg/kg BW): 66.18
- calculated DCR value ([3]; single oral 1714 mg/kg BW): 3037
- calculated EARtest value ([3]; single oral 1714 mg/kg BW): 119.90
- calculated DCR value ([3]; single oral 1786 mg/kg BW): 3078
- calculated EARtest value ([3]; single oral 1786 mg/kg BW): 121.49
